Experimental data: patent publication US10259815B2, “Gabaergic ligands and their uses” (UWM Research Foundation, Inc., priority 2015, dated 2019)

What was measured:
Male Sprague-Dawley rats [1] = assay: Inverted screen test (muscle relaxation); type: in vivo
Method: (§1) Results were analyzed using ANOVA (Dunnett's test: *P<0.05).
The inverted screen test is used to measure whether or not a test compound induces muscle relaxation. When a test subject is placed on a wire screen which is then inverted, the reaction is to climb to the opposite side so they are no longer hanging upside down. If a compound promotes muscle relaxation, the test subjects will either fall off, or hang onto the screen without being able to climb to the opposite side.
Rats were placed onto the top of a wire screen, which was then inverted so that the rats were hanging upside down. […] Results were analyzed using ANOVA (Dunnett's test: *P<0.05).

Male Sprague-Dawley rats [2] = assay: scMET-induced seizure protection, rats; type: in vivo; settings: i.p. 30 minutes prior; pentylenetetrazole 35 mg/kg
Method: A 35 mg/kg subcutaneous dose of pentylenetetrazole was given and the percent outcome of seizure was recorded. Results were analyzed using ANOVA (Dunnett's test: *P<0.05).
Test subjects were given a test compound, followed by a 35 mg/kg dose of MET and observed for convulsions (FIG. 7).
as §1

Mice = assay: scMET test for anticonvulsant activity, mice; type: in vivo
Method: Mice were then dosed i.p. with 5, 10, 25, or 50 mg/kg of KRM-II-81.

Male Sprague-Dawley rats [3] = assay: Vogel conflict procedure; type: in vivo; settings: i.p. 30 minutes prior; KRM-II-81 significant at 10 mg/kg; chlordiazepoxide 20 mg/kg
Method: FIG. 10 is a graph of the concentration of KRM-II-81 versus percent of control for KRM-II-81 analyzed in the Vogel conflict procedure. After a baseline was established using a vehicle (1% 2-hydroxyethyl cellulose), male Sprague-Dawley rats (n=6-8) were dosed i.p. with either KRM-II-81 (3, 10, 30, or 60 mg/kg) or chlordiazepoxide (20 mg/kg) 30 minutes prior to testing. Results were analyzed using ANOVA (Dunnett's test: *P<0.05; Student t-test: **P<0.05).
Subjects are withheld from water prior to testing. Once given water during testing, they will either be unpunished, where they are free to drink without consequence, or punished, where a small electrical shock is applied after every 20th lick. In vehicle punished, is it is expected that the rats hesitate from drinking due to the anxiousness of being shocked. When given an anxiolytic, the […] will continue to drink water despite the electrical shock.
Experiments were conducted as described in the protocol of Alt et al. (Neuropharmacology 2007, 52, 1482-1487). […]
Apparatus. […] All events were controlled and licking data was recorded by a Compaq computer running MED-PC Version IV (Med Associates Inc., Georgia, Vt., USA).
Sipper tube training. […] The six minutes was broken into two components, the first three minutes was recorded as the unpunished component and the second three minutes were recorded as the punished component. […]

Male NIH Swiss mice = assay: Forced swim test; type: in vivo; settings: 10 and 30 mg/kg i.p.
Method: FIG. 16 is a graph of immobility illustrating the antidepressant effects of KRM-II-81 assessed in the forced swim test. Male NIH Swiss mice (n=7-8) were dosed i.p. with vehicle (1% HEC, 0.25% Tween 80, 0.05% antifoam), KRM-II-81 (3, 10, or 30 mg/kg), or imipramine (15 mg/kg) and assessed in the forced swim test. Results were analyzed using ANOVA (Dunnett's test *P<0.05).
The forced swim test is used as a primary screen for the antidepressant nature of a test compound. Mice are placed in a cylinder filled with a small amount of water. Mice that are more mobile after a dosing of a compound are determined to be less depressed.
The experiment was carried out as described by Porsolt et al. (Arch. Int. Pharmacodyn. Ther. 1977, 229, 327-366). Male NIH Swiss mice (n=7-8) were dosed i.p. with vehicle (1% HEC, 0.25% Tween 80, 0.05% antifoam), KRM-II-81 (3, 10, or 30 mg/kg), or imipramine (15 mg/kg) and assessed in the forced swim test. Mice were placed individually in clear plastic cylinders (10 cm in diameter×25 cm in height) filled to 6 cm with 22-25° C. water for 6 minutes. The duration of immobility was recorded during the last 4 minutes of a 6-minute trial. A mouse was regarded as immobile when floating motionless or making only those movements necessary to keep its head above the water.

CYP2C9 = CYP2C9 (Homo sapiens, UniProt P11712); assay: CYP substrate assessment, CYP2C9
Sequence of CYP2C9 (P11712 whole entry): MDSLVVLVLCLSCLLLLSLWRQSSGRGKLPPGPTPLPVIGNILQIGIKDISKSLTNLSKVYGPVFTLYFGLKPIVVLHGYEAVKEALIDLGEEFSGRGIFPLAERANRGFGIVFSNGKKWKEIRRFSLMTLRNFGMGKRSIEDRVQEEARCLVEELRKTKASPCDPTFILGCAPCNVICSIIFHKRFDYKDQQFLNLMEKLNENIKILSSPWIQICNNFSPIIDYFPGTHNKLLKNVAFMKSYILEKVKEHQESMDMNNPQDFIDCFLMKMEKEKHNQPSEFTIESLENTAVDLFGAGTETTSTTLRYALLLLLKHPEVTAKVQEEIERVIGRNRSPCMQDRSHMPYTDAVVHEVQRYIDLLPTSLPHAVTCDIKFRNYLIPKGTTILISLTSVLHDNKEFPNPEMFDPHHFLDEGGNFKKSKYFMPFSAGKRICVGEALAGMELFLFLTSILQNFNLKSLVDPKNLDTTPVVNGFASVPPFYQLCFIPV

C#Cc1ccc2c(c1)C(c1ccccn1)=NCc1c(-c3cnco3)ncn1-2 [KRM-II-81, 5-(8-Ethynyl-6-(pyridin-2-yl)-4H-benzo[f]imidazo[1,5-a][1,4]diazepin-3-yl)oxazole]
muscle relaxation / motor impairment in inverted screen (Male Sprague-Dawley rats [1]; i.p. 30 minutes prior, diazepam 3, 10, 30 mg/kg, KRM-II-81 10, 30, 60 mg/kg, HZ-166 30 mg/kg): Neither HZ-166 nor KRM-II-81 induced significant muscle relaxation
dose at which signs of muscle relaxation began to appear (Male Sprague-Dawley rats [1]; i.p., inverted screen): 60 mg/kg
dose achieving significant protection against scMET seizures (Male Sprague-Dawley rats [2]): 30 mg/kg
Protected (animals protected/tested) (Mice; Dose 5 mg/kg i.p.): 0/8
Protected (animals protected/tested) (Mice; Dose 10 mg/kg i.p.): 5/8
Protected (animals protected/tested) (Mice; Dose 25 mg/kg i.p.): 7/8
Protected (animals protected/tested) (Mice; Dose 50 mg/kg i.p.): 8/8
ED50 (Mice; Mus musculus, ip, half hour time point, mice): 10.9 mg/kg
punished licking compared to control (Male Sprague-Dawley rats [3]): significant increase in punished licking
antidepressant effects (immobility) (Male NIH Swiss mice): demonstrated antidepressant effects
substrate of CYP2C9 (CYP2C9): not found to be a substrate
